One may read the IC50 as the concentration at which inhibition is half-maximal. Low values mean higher potency, high ones lower potency.

Assay [1] in a line: Cytotoxicity against human HFF1 cells after 96 hrs by MTT assay. Conditions: HFF-1, 96 h. In kind it is cell-based.
Assay [2] concerns MCF7. Description: Cytotoxicity against human MCF7 cells after 96 hrs by MTT assay. Format: functional, cell-based. Conditions: MCF7, 96 h. Background: Tetrazolium assays rely on reduction of a dye to a coloured formazan, in cell work by metabolically active cells.
In assay [3] the test system is MCF7. Description: Cytotoxicity against human MCF7 cells after 48 hrs by MTT assay. Format: functional, cell-based. The conditions noted are these: MCF7, 48 h.
The subject of assay [4] is MCF7. Description: Cytotoxicity against human MCF7 cells after 24 hrs by MTT assay. In kind it is functional, cell-based. The conditions noted are these: MCF7, 24 h.
The test system of assay [5] is MCF7. The assay can be described thus: Cytotoxicity against human MCF7 cells after 72 hrs by MTT assay. In kind it is functional, cell-based. Conditions: MCF7, 72 h.

In assay [1], `Cc1c(CO)cc2n1[C@@H](c1ccccc1)SC2` displayed an IC50 of 154 µM.

As for `Cc1cc(CO)c2n1[C@@H](c1ccccc1)SC2`, the IC50 in assay [1] was determined as 104 µM.

As to `Cc1c(COC(=O)NCc2ccccc2)cc2n1[C@@H](c1ccccc1)SC2`, the half-inhibitory concentration (IC50) in assay [1] worked out at 48.2 µM.

In the case of `OCc1c(CO)c(-c2ccccc2)n2c1CS[C@@H]2c1ccccc1`, the IC50 stood at 70.2 µM in the assay on MCF7 [2], 61.8 µM in the assay on MCF7 [3], 92.6 µM in the assay on MCF7 [4] and 52.1 µM in the assay with MCF7 [5].

Consider `OCc1c(CO)c(-c2ccc(F)cc2)n2c1CS[C@@H]2c1ccccc1`, for which the IC50 in the assay on MCF7 [2] was 26.4 µM; in the assay with MCF7 [3] it was 46.3 µM; in the assay with MCF7 [4] it was 56.7 µM; in the assay with MCF7 [5] it was 44.6 µM.

Consider `Cc1c(CO)c(CO)c2n1[C@H](c1ccccc1)SC2`, for which the IC50 in the assay with MCF7 [2] was found to be 0.3 µM; in the assay on MCF7 [3], 0.54 µM; with MCF7 [4], 1.75 µM; in the assay on MCF7 [5] it was 0.54 µM.

Consider `Cc1c(CO)cc2n1CSC2`, for which the IC50 in the assay with MCF7 [2] was 82.3 µM; in the assay on MCF7 [3] it was 156 µM; in the assay on MCF7 [4], 186 µM; in the assay on MCF7 [5], 192 µM.

Take `Cc1cc(CO)c2n1CSC2`: the IC50 with MCF7 [2] stood at 44.6 µM; with MCF7 [3], 54.7 µM; in the assay on MCF7 [4] it was 75.9 µM; in the assay with MCF7 [5] it was 40.9 µM.

Regarding `Cc1c(CO)c(CO)c2n1CSC2`, the IC50 was found to be 21.5 µM in the assay with MCF7 [2], 38.1 µM in the assay with MCF7 [3], 37.8 µM in the assay with MCF7 [4] and 22.6 µM with MCF7 [5].

As for `COc1cc([C@H]2SCc3c(CO)c(CO)c(C)n32)cc(OC)c1OC`, the IC50 was 59.9 µM in the assay on MCF7 [2], 127 µM in the assay with MCF7 [3], above 200 µM in the assay with MCF7 [4] and 54.5 µM in the assay on MCF7 [5].

Turning to `OCc1cn2c(c1CO)CS[C@@H]2c1ccccc1`, the IC50 with MCF7 [3] was determined as 19.4 µM; in the assay with MCF7 [4], 70.8 µM.

Take `OCc1cn2c(c1CO)CS[C@@H]2c1cccnc1`: the IC50 in the assay with MCF7 [2] is 30.6 µM; with MCF7 [3] it was 128 µM; with MCF7 [4] it was above 200 µM; with MCF7 [5] it was 61.7 µM.

The record behind these values is ChEMBL document CHEMBL2311474, “Chiral 6,7-bis(hydroxymethyl)-1H,3H-pyrrolo[1,2-c]thiazoles with anti-breast cancer properties” (Eur J Med Chem, 2013).
